Test results taken from patent US8415469B2, “Compounds and methods for kinase modulation, and indications therefor” (Plexxikon Inc., priority 2005, dated 2013).

Experiments:
Format in all cases: biochemical
FGFR1 = target: T1, FGFR1 (Homo sapiens, UniProt P11362, C488A/C584S); assay: AlphaScreen kinase assay, FGFR1; details: read-out: IC50, activity toward kinase FGFR
T1 construct: P1351.pET N6 BI-PTP FGFR A458-E765-X C488A, C584S; made in house; host or cells: E. coli (PTP1B co-expressed)

Zap70 = target: T2, Zap70 (Homo sapiens, UniProt P43403); assay: AlphaScreen kinase assay, Zap70; details: read-out: IC50, activity toward kinase Zap70
T2 construct: P1868.pFastBac1 ZAP70 D327-G606 HIS, WT; His7 (HHHHHHH) (C); made in house
T2 sequence (P43403 with tags, fused parts or gaps): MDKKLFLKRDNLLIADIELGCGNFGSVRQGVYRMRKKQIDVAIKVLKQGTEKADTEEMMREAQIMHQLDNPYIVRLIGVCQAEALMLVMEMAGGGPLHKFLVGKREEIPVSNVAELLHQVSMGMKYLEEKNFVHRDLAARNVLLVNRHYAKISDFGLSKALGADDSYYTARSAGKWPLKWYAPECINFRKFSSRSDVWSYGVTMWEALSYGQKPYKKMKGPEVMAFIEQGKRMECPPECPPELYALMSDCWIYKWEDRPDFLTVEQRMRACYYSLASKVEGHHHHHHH
Description: AlphaScreen assay was used to screen additional kinases. The assay is similarly dependent on the phosphorylation of a peptide substrate. In this assay, an antibody that recognizes phosphorylated substrate is bound to an acceptor bead. The peptide substrate is attached to biotin, which binds to a donor head that contains streptavidin. Thus phosphorylated substrate is bound by antibody and streptavidin, bringing the donor and acceptor heads into close proximity when kinase is not inhibited. The donor produces singlet oxygen which results in emission from the acceptor when they are in close proximity. Conversely, when kinase is inhibited, the donor and acceptor beads are not associated and the emission from the acceptor is reduced.
AlphaScreen assays were done using compounds dissolved in DMSO to a concentration of 20 mM. The compounds were diluted accordingly to the desired final concentrations in each sample well, using 1:3 serial dilution for a total of 8 concentration points.

Kdr = target: T3, Kdr (Homo sapiens, UniProt P35968); assay: Z'-Lyte FRET kinase assay (Invitrogen), Kdr; details: read-out: IC50, activity toward kinase Kdr
T3 construct: purchased Invitrogen (assay run by Invitrogen)

Ret = target: T4, Ret (Homo sapiens, UniProt P07949); assay: AlphaScreen kinase assay, Ret; details: read-out: IC50, activity toward kinase Ret
T4 construct: P1378.pET-SF BI-PTP RET H661-R1012 HIS; made in house
T4 sequence (P07949 with tags, fused parts or gaps): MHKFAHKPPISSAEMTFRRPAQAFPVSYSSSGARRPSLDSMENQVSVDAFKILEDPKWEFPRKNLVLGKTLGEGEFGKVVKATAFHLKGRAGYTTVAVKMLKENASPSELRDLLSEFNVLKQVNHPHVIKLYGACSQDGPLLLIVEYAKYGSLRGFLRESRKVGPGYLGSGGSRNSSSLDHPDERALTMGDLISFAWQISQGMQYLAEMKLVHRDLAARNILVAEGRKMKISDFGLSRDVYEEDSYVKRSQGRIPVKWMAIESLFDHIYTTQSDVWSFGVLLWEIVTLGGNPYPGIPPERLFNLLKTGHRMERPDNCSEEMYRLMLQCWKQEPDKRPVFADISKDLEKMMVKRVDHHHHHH

B-Raf V600E = target: T5, B-Raf V600E (Homo sapiens, UniProt P15056, V600E); assay: AlphaScreen kinase assay, B-Raf V600E; details: read-out: IC50, activity toward kinase B-Raf V600E
T5 construct: P4254. pFastBacBD-CDC37 BRAF D437-K722-X, V600E; His6 with pFastBac HT leader (TEV site) (N); made in house; host or cells: Sf9 (baculovirus; chaperone CDC37 co-expressed)

Stk6 = target: T6, Stk6 (Homo sapiens, UniProt O14965); assay: Z'-Lyte FRET kinase assay (Invitrogen), Stk6; details: read-out: IC50, activity toward kinase Stk6
T6 construct: purchased Invitrogen (Carlsbad, Calif.), screening service
T6 sequence (O14965 1-403): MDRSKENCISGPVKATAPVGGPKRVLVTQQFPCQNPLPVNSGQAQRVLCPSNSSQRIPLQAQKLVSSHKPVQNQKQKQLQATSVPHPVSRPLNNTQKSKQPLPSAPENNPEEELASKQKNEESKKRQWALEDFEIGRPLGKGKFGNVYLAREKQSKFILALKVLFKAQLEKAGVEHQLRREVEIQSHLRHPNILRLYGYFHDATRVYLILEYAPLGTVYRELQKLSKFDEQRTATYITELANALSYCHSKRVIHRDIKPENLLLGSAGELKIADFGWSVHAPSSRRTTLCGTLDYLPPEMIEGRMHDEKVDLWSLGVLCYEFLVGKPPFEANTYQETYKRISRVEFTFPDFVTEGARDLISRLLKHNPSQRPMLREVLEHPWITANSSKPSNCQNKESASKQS

Jnk3 = target: T7, Jnk3 (Homo sapiens, UniProt P53779); assay: AlphaScreen kinase assay, Jnk3; details: read-out: IC50, activity toward kinase Jnk3
T7 construct: purchased Upstate Biotechnology
Description: AlphaScreen assays were done using compounds dissolved in DMSO to a concentration of 20 mM. The compounds were diluted accordingly to the desired final concentrations in each sample well, using 1:3 serial dilution for a total of 8 concentration points. Plates were prepared such that each kinase reaction is 20 μl in 1× kinase buffer, 5% DMSO and 10 μM ATP. After incubation of the kinase reaction for 1 hour at room temperature, 5 μl of donor beads in stop buffer (50 mM EDTA in 1× kinase buffer) was added, the sample was mixed and incubated for 20 minutes at room temperature before adding 5 μl of acceptor beads in stop buffer. The samples were incubated for 60 minutes at room temperature and the signal per well was read on AlphaQuest reader.

Kit = target: T8, Kit (Homo sapiens, UniProt P10721); assay: AlphaScreen kinase assay, Kit; details: read-out: IC50, activity toward kinase Kit
T8 construct: P1332.N6 BI PTP KIT M552-K948-X COD; His6 (N); made in house; host or cells: E. coli (PTP1B co-expressed)

Fak = target: T9, Fak (Homo sapiens, UniProt Q05397); assay: AlphaScreen kinase assay, Fak; details: read-out: IC50, activity toward kinase Fak
T9 construct: P1358.pFastBacHtb FAK S411-Q686-X; His6 with pFastBacHTb leader (TEV site) (N); made in house; host or cells: Sf9 (baculovirus)
T9 sequence (Q05397 411-686): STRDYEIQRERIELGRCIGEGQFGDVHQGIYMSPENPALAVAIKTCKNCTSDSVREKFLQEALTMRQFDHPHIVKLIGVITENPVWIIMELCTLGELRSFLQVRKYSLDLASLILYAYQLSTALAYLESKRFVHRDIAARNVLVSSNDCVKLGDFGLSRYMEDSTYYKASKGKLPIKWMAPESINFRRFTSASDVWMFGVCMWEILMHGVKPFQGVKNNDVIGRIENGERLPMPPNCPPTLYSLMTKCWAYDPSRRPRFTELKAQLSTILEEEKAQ

T3 sequence (P35968 20-1356): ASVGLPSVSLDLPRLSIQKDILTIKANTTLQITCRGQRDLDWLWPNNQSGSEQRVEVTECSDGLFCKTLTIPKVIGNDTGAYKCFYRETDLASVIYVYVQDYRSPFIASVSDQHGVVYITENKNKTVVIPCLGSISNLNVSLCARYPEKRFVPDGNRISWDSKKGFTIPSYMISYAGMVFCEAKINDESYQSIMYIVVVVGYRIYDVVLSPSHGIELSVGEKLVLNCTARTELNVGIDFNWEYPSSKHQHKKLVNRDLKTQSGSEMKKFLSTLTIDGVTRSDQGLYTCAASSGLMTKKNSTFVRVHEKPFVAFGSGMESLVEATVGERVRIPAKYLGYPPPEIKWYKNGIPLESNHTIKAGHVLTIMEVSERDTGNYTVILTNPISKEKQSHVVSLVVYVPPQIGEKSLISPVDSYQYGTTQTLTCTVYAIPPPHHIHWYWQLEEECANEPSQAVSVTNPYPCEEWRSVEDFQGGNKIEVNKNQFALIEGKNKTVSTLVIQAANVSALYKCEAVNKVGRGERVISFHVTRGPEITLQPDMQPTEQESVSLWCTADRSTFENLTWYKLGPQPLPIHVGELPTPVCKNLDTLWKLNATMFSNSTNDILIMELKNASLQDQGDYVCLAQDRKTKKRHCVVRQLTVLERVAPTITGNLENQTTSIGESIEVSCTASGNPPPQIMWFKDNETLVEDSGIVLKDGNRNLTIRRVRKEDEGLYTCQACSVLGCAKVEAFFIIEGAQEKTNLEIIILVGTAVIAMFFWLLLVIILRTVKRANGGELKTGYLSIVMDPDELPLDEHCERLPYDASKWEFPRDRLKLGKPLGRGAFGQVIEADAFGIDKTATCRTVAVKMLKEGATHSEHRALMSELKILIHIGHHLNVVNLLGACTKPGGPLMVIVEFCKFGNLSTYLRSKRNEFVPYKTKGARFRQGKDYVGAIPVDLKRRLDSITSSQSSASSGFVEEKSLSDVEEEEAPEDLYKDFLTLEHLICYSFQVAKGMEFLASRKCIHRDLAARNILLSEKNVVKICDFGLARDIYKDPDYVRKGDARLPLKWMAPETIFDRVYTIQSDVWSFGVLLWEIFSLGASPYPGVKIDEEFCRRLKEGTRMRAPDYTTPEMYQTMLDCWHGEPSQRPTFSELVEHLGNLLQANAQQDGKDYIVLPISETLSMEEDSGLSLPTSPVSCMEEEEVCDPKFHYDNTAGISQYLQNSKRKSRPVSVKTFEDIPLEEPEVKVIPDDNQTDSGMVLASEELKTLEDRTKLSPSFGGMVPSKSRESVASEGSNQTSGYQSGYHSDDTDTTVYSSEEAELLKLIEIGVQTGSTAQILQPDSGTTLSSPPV
T7 sequence (P53779 whole entry): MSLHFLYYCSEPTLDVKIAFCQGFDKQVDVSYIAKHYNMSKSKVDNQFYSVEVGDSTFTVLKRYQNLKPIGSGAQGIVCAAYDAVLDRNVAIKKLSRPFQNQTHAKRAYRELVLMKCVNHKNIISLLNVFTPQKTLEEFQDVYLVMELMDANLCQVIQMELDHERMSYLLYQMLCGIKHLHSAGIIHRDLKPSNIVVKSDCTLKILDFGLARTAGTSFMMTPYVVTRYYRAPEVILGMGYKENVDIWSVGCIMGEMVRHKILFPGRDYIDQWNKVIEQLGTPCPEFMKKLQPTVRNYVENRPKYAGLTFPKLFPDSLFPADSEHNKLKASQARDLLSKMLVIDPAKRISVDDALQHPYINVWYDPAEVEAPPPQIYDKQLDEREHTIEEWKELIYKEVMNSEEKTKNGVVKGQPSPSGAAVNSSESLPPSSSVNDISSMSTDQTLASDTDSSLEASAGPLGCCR
T8 sequence (P10721 with tags, fused parts or gaps): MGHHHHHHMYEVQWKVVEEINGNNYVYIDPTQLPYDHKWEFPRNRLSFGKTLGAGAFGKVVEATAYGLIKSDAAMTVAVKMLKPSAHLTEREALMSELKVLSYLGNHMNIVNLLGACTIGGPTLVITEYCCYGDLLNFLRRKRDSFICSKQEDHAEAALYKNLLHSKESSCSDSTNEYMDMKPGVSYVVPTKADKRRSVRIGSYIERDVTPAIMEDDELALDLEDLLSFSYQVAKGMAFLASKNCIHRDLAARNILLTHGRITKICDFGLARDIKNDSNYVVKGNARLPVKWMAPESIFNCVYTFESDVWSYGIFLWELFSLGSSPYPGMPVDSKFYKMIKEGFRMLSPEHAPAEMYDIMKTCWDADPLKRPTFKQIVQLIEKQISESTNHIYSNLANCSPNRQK
T5 sequence (P15056 with tags, fused parts or gaps V600E): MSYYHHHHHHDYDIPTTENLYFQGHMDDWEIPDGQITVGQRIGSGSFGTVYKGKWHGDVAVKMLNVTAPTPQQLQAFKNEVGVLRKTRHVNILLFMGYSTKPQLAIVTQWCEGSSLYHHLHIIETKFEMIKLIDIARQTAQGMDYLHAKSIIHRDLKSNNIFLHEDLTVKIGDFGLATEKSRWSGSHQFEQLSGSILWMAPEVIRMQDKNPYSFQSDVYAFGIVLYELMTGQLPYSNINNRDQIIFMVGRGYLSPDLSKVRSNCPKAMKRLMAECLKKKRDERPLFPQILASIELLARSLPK
T1 sequence (P11362 458-765 C488A/C584S): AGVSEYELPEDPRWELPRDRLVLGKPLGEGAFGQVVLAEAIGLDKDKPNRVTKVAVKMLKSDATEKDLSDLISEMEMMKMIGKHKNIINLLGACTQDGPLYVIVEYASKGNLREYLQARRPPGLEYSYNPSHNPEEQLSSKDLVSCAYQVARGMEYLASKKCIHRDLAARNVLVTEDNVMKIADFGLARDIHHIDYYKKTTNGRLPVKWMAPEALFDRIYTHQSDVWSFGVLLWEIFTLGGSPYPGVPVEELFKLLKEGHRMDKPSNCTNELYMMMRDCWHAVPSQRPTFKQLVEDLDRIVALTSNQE

In the case of Cc1cc(C)cc(Cc2c[nH]c3ncccc23)c1 [Compound P-0507], the IC50 (FGFR1) is reported as no more than 10 µM and the IC50 (Zap70) is reported as no more than 10 µM.

In the case of CC(C)c1ccc(Cc2c[nH]c3ncccc23)cn1 [Compound P-0379], the IC50 (Kdr) is reported as no more than 10 µM, the IC50 (FGFR1) is reported as no more than 10 µM and the IC50 (Zap70) is reported as no more than 10 µM.

With CS(=O)(=O)Nc1cccc(-c2cnc3[nH]cc(C(=O)c4ccc5nsnc5c4)c3c2)c1 [Compound P-1089] the IC50 (Zap70) was no more than 10 µM and the IC50 (Ret) was no more than 10 µM.

Work on Fc1cc(F)cc(-c2ccnc3[nH]ccc23)c1 [Compound P-0296] yielded an IC50 (Kdr) of no more than 10 µM and an IC50 (Zap70) of no more than 10 µM.

Cc1cc(C(=O)c2c[nH]c3nccc(-c4cccc(/C=C/C(=O)O)c4)c23)no1 [Compound P-1000] showed an IC50 (B-Raf V600E) of no more than 10 µM, an IC50 (Zap70) of no more than 10 µM and an IC50 (Ret) of no more than 10 µM.

Work on Cc1[nH]c2ncccc2c1-c1cccs1 [Compound P-0249] yielded an IC50 (Stk6) of no more than 10 µM and an IC50 (Zap70) of no more than 10 µM.

In the case of O=C(c1cccc(F)c1)c1c[nH]c2ncc(-c3ccsc3)cc12 [Compound P-0378], the IC50 (Jnk3) is reported as no more than 10 µM, the IC50 (Kit) is reported as no more than 10 µM and the IC50 (Zap70) is reported as no more than 10 µM. The IC50 (Ret) was no more than 10 µM.

COC(c1ccc(Br)cc1)c1c[nH]c2ncc(-c3cccc(S(C)(=O)=O)c3)cc12 (centres unmarked) [Compound P-0434] gave an IC50 (B-Raf V600E) of no more than 10 µM, an IC50 (Zap70) of no more than 10 µM and an IC50 (Ret) of no more than 10 µM.

Work on O=C(c1cccc(Cl)c1Cl)c1c[nH]c2ncc(-c3ccsc3)cc12 [Compound P-0698] yielded an IC50 (B-Raf V600E) of no more than 10 µM, an IC50 (Jnk3) of no more than 10 µM and an IC50 (FGFR1) of no more than 10 µM. For the same compound, the IC50 (Zap70) was no more than 10 µM and the IC50 (Ret) was no more than 10 µM.

CCCCc1ccc(S(=O)(=O)NCc2c[nH]c3ncccc23)cc1 [Compound P-1119] was tested, and the IC50 (Zap70) was no more than 10 µM and the IC50 (Ret) was no more than 10 µM.

With O=S(=O)(NCc1c[nH]c2ncccc12)c1ccc(-c2cccc(CO)c2)cc1 [Compound P-0193] the IC50 (Stk6) was no more than 10 µM and the IC50 (Zap70) was no more than 10 µM.

Work on O=C(c1cccc(F)c1)c1c[nH]c2ncc(Br)cc12 [Compound P-0865] yielded an IC50 (Kit) of no more than 10 µM, an IC50 (FGFR1) of no more than 10 µM and an IC50 (Zap70) of no more than 10 µM. It also gave an IC50 (Ret) of no more than 10 µM.

Compound NC(=O)c1ccc(-c2cnc3[nH]cc(C(=O)c4ccc(Cl)cc4)c3c2)cc1 [Compound P-1073] has an IC50 (Zap70) of no more than 10 µM and an IC50 (Ret) of no more than 10 µM.

NC(=O)c1ccc(-c2cnc3[nH]cc(C(=O)c4ccc5nsnc5c4)c3c2)cc1 [Compound P-1081] showed an IC50 (Zap70) of no more than 10 µM and an IC50 (Ret) of no more than 10 µM.

CN1CCN(Cc2ccc(C(=O)Nc3ccc(Cc4c[nH]c5ncccc45)cc3)cc2)CC1 [Compound P-0795] gave an IC50 (Fak) of no more than 10 µM, an IC50 (Zap70) of no more than 10 µM and an IC50 (Ret) of no more than 10 µM.

For COc1cccc(C(=O)c2c[nH]c3ncc(-c4cccnc4)cc23)c1 [Compound P-0218], the IC50 (Jnk3) was no more than 10 µM and the IC50 (Zap70) was no more than 10 µM.

O=C(CCc1c[nH]c2ncccc12)NCc1cccnc1 [Compound P-0456] showed an IC50 (Zap70) of no more than 10 µM.

Compound O=C(O)/C=C/c1cccc(-c2cnc3[nH]cc(C(=O)c4ccc5nsnc5c4)c3c2)c1 [Compound P-1019] has an IC50 (Zap70) of no more than 10 µM and an IC50 (Ret) of no more than 10 µM.

Work on Cc1cccc(-c2ccnc3[nH]cc(CNS(=O)(=O)c4ccc([N+](=O)[O-])cc4)c23)c1 [Compound P-0888] yielded an IC50 (Zap70) of no more than 10 µM.

COc1cc(CCNCc2cc3cccnc3[nH]2)ccc1O [Compound P-0836] showed an IC50 (Zap70) of no more than 10 µM.

Work on Cc1[nH]c2ncccc2c1-c1ccc(F)c(F)c1 [Compound P-0929] yielded an IC50 (Zap70) of no more than 10 µM.

Fc1ccccc1-c1c[nH]c2ncccc12 [Compound P-0195] gave an IC50 (Kdr) of no more than 10 µM, an IC50 (Kit) of no more than 10 µM and an IC50 (Zap70) of no more than 10 µM.

For Brc1c(CNCc2cccnc2)[nH]c2ncccc12 [Compound P-0875], the IC50 (Zap70) was no more than 10 µM.

O=Cc1ccc(-c2ccnc3[nH]ccc23)cc1 [Compound P-0996] was tested, and the IC50 (Zap70) was no more than 10 µM.

Work on CCCOc1ccc(-c2c[nH]c3ncccc23)cc1 [Compound P-0878] yielded an IC50 (Zap70) of no more than 10 µM.

Compound O=S(=O)(NCc1c[nH]c2ncccc12)c1cccc(-c2cccc(CO)c2)c1 [Compound P-0484] has an IC50 (Zap70) of no more than 10 µM.

Work on O=S(=O)(NCc1c[nH]c2ncccc12)c1ccc(Cl)s1 [Compound P-0930] yielded an IC50 (Zap70) of no more than 10 µM.

With COc1ccc(F)cc1Cc1c[nH]c2ncccc12 [Compound P-0348] the IC50 (Stk6) was no more than 10 µM and the IC50 (Zap70) was no more than 10 µM.

Work on O=C(c1cccc(O)c1)c1ccc(-c2cnc3[nH]ccc3c2)s1 [Compound P-0755] yielded an IC50 (Jnk3) of no more than 10 µM, an IC50 (Kit) of no more than 10 µM and an IC50 (Zap70) of no more than 10 µM.

COc1cccc(C(=O)c2c[nH]c3ncc(-c4ccc(C(N)=O)cc4)cc23)c1 [Compound P-1005] showed an IC50 (Jnk3) of no more than 10 µM, an IC50 (Zap70) of no more than 10 µM and an IC50 (Ret) of no more than 10 µM.
